Results taken from publication PMC6826779, “Bis-allylic Deuterated DHA Alleviates Oxidative Stress in Retinal Epithelial Cells” (Antioxidants, 2019).

Assay: Radical oxidation of DHAs with AAPH, LC-MS/MS quantification of 4-F4t-NeuroP
Format: physicochemical
Conditions: AAPH 1 mM, phosphate buffer/methanol, 37 °C, 14 h; compared to natural DHA
Procedure: A solution of DHA in methanol (1 mg/mL, 0.5 mL) was added to 4.5 mL of phosphate-buffered saline solution (pH = 7.3) containing 1 mM of AAPH. The mixture was heated at 37 °C for 14 h, and then allowed to reach room temperature The mixture was spiked with 4 ng of internal standard (IS: C21-15-F2t-IsoP) and then purified using solid phase extraction.
For solid-phase extraction (SPE), Oasis MAX mixed polymer phase anion exchanger cartridges were used. Aliquots of 2 mL of sample were loaded on the cartridges previously conditioned with 2 mL of methanol and equilibrated with 2 mL of 0.02 M of formic acid (pH 4.5). […] Recoveries were determined to range between 83 and 100% (see Supplementary Materials). […]
Mass spectrometry analysis was performed on an AB SCIEX QTRAP 5500 (Sciex). […] Quantification was accomplished using external calibration lines constructed with the internal standard (IS: C21-15-F2t-IsoP). The data are presented as means ± SD determined from 3 independent experiments, each performed in triplicate assay.
Standards solutions of IS (C21-15-F2t-IsoP) and NeuroP standardt (4(RS)-F4t-NeuroP) used to determine the different characteristic transitions and the elution time for each compound were prepared in methanol at 1 µg/mL from 1 mg/mL stock solution in methanol. […] Finally, calibration curves were calculated by the area ratio of the NeuroP and the internal standard.

Structure (SMILES) | 4-F4t-NeuroP formation after radical oxidation
[2H]C([2H])(/C=C\C/C=C\C/C=C\C/C=C\C/C=C\CC)/C=C\CCC(=O)O [D2-DHA, (6,6-D2)-DHA] | decrease of 4-F4t-NeuroP formation
[2H]C([2H])(C=CCC=CCC=CCC=CCC)C=CC([2H])([2H])C=CCCC(=O)O [D4-DHA, (6,6,9,9-D4)-DHA] | decrease of 4-F4t-NeuroP formation
